Laboratory results taken from patent publication US20220117945A1, “ISOXAZOLE CARBOXAMIDE COMPOUNDS AND USES THEREOF” (NOVARTIS AG, priority 2017, published 2022).

What was measured:
[1] = system: Atoh1 expression in mouse cerebellar neural precursor cells; assay: Atoh1 induction assay in mouse cerebellar neural precursor cells (NPCs), Atoh1-GFP reporter; type: cell-based; details: 10 doses 50 μM to 200 nM, 72 hours treatment, DMSO control = 1, more than 5 considered significant, read-out: fold difference (maximum fold difference of GFP average intensity in cell nuclei over the DMSO control)
Description: (§1) Compounds of the present disclosure were assessed for their ability to increase the Atoh1 expression in mouse cerebellar neural precursor cells. The ability of compounds of the present disclosure to induce new hair cell formation was assessed in ex vivo hair cell induction assay using 6-day-postnatal mouse cochlea explants with hair cell damage.
Atoh1 Induction Assay in Mouse Cerebellar Neural Precursor Cells (NPCs)
Atoh1 induction assay was conducted with in vitro cultured cerebellar neural precursor cells isolated from neonatal transgenic Atoh1-GFP mice. Atoh1 expression is mainly regulated by the enhancer, and the nuclear GFP was driven by the cloned enhancer sequence at 3′ of Atoh1 which had high conservation among mammalians. So Atoh1 induction could be reflected by GFP activation in cerebellar neural precursor cells (Helms et al., Development 2000; 127: 1185-1196; Lumpkin et al., Gene Expression Patterns 2003; 3: 389-395). Postnatal 3 days pups were dissected for cerebellum tissue isolation. The cerebellum tissue was cut into small pieces, and dissociated with 0.05% Trypsin for about 10 minutes at 37° C., and then filtered with a 70 uM cell strainer. The cells were cultured as neuropsheres for the first 2 days in ultra-low attachment dish/well-plate with DMEM/F12+1% N2 &2% B27 with 1% P/S, 20 ng/ml rhFGF2 and 20 ng/ml rhEGF (R&D Systems). Then the spheres were plated to the matrigel (1:30 diluted in DMEM/F12)-coated tissue culture dish for monolayer culture. After 4.5-5.5 days culture in vitro (DIV), cells were dissociated with 0.05% trypsin into single cells, and frozen after cell number calculation.
The cerebellar neural precursor cells (NPCs) were re-thawed from stock and cultured for another 2 days before used for Atoh1 induction assay. On the first day of assay, NPCs were seeded into matrigel-coated 384 well plates (Black view-plate, PE) at 2500 cells/well. After over-night culture, the NPCs were treated with representative compounds of the present disclosure with 1:2 serial dilutions for 10 doses, from 50 μM to 200 nM, with DMSO as negative control. After 72 hours treatment without medium change, the cells were fixed with 4% formalin for staining. Assay plates were stained with GFP antibody (Abcam, #13970, 1:1000) to amplify endogenous GFP signal and then read by Cellomics.

[2] = system: 6-day-postnatal mouse cochlea explants with hair cell damage; assay: Ex vivo hair cell induction assay using 6-day-postnatal mouse cochlea explants with hair cell damage; type: cell-based; details: P6 Atoh1-GFP mouse cochlea explants, neomycin-damaged; 3 to 10 μM compound for 8 days, then 4 days blank medium; mean ± SD; DMSO = 0%; more than 20% considered significant
Description: as §1
Ex Vivo Hair Cell Induction Assay Using 6-Day-Postnatal Mouse Cochlea Explants with Hair Cell Damage
P6, postnatal 6 days, Atoh1-GFP mice, the same mouse strain used for Atoh1 induction assay described before, were used in this assay. The otic capsule was exposed and the cochleae were micro-dissected. […] and in vitro cultured in serum free medium (culture medium: DMEM/F12+1% N2+2% B27+5 μg/ml ampicillin) at 37° C. under a standard gas atmosphere of humidified air/5% CO2. Inner ear hair cells were damaged by 1 mM Neomycin treatment for 1.25 h. After the neomycin treatment, explants were cultured in blank culture medium for 7 days before the treatment of selected compounds.
For compound administration, the cochlea explants were treated with 3 to 10 μM compound of the present disclosure, with DMSO as the negative control for 8 days with once compound/medium change. After 8 days treatment, the tested compound was removed. The explants were cultured in blank medium for additional 4 days. The cochlea explant cultures then were fixed with 4% w/v formalin and processed for Myo7a immunofluorescence (Myo7a is a specific marker for sensory hair cell) using the rabbit anti-Myo7a antibody (Protus Biosci #25-6790, 1:250 diluted in PBS containing 3% BSA). Rhodamine labeled Goat-anti-rabbit IgG (Molecular Prob. #R6394, 1:1000 diluted in PBS containing 3% BSA) was used as the secondary antibody to visualize the Myo7a positive cells. The images were collected and analyzed using the EVOS image system (Thermo-Fisher Scientific). […] The hair cell identity of the ectopically formed cells was confirmed by staining the cells with multiple hair cell markers.
The efficacy of hair cells induction in this assay is represented by the responsive length percentage of Atoh1 and Myo7a double positive cells in the damaged whole explants after compound treatment. The responsive length percentage was calculated according to the equation of ((the explant length with Atoh1 and Myo7a double positive cells/the full length of cochlea explant)*100%). Note the value of DMSO control is 0% due to total damage of hair cells, and any responsive length percentage more than 20% is considered as significant hair cell induction.

Compound | maximal fold induction [1] | Responsive length % (explant length with Atoh1 and Myo7a double positive cells / full length of cochlea explant) [2] [%]
CC(=O)N1CCN(CCCCCNC(=O)c2cc(-c3cccs3)on2)CC1 [Example 40] | 21.5 | 36.9 ± 7.4
O=C(NCCCCCN1CC(CO)C1)c1cc(-c2cccs2)on1 [Example 55] | 29 | 53.1 ± 6.2
N#CCC1CN(CCCCCNC(=O)c2cc(-c3cccs3)on2)C1 [Example 49] | 37.1 | 47.5 ± 9.2
CC1CN(CCCCCNC(=O)c2cc(-c3cccs3)on2)CC(C)N1 (stereo not drawn) [Example 14, N-(5-(3,5-Dimethylpiperazin-1-yl)pentyl)-5-(thiophen-2-yl)isoxazole-3-carboxamide] | 29.1 | 45.3 ± 6.7
O=C(NCCCCCN1CCC(F)CC1)c1cc(-c2cccs2)on1 [Example 53] | 22.9 | 34.7 ± 9.8
O=C(NCCCCCN1CC(O)C1)c1cc(-c2ccc(F)cc2)on1 [Example 67] | 18.9 | 58.2 ± 3.5
O=C(NCCCCCN1CCNC(c2ccccc2)C1)c1cc(-c2cccs2)on1 (stereo not drawn) [Example 1, N-(5-(3-Phenylpiperazin-1-yl)pentyl)-5-(thiophen-2-yl)isoxazole-3-carboxamide] | 22.4 | 
CN1CC2CCC(C1)N2CCCCCNC(=O)c1cc(-c2cccs2)on1 [Example 13, N-(5-(3-Methyl-3,8-diazabicyclo[3.2.1]octan-8-yl)pentyl)-5-(thiophen-2-yl)isoxazole-3-carboxamide] | 23 | 
CNC(=O)NC1CN(CCCCCNC(=O)c2cc(-c3ccc(F)cc3)on2)C1 [Example 23, 5-(4-Fluorophenyl)-N-(5-(3-(3-methylureido)azetidin-1-yl)pentyl)isoxazole-3-carboxamide] | 25.7 | 
O=C(NCCCCCN1CCCC(F)C1)c1cc(-c2cccs2)on1 (stereo not drawn) [Example 50] | 23.4 | 
COC1CN(CCCCCNC(=O)c2cc(-c3ccc(F)cc3)on2)C1 [Example 68] | 22.3 | 
O=C(NCCCCCN1CC2(COC2)C1)c1cc(-c2ccc(F)cc2)on1 [Example 69] | 33.5 | 
CS(=O)(=O)C1CN(CCCCCNC(=O)c2cc(-c3cccs3)on2)C1 [Example 63] | 19.8 | 
N#CCCNC(=O)C1CN(CCCCCNC(=O)c2cc(-c3cccs3)on2)C1 [Example 84, N-(5-(3-((2-Cyanoethyl)carbamoyl)azetidin-1-yl)pentyl)-5-(thiophen-2-yl)isoxazole-3-carboxamide] | 35.1 | 
O=C(NCCCCCN1CCN2CCCC2C1)c1cc(-c2cccs2)on1 (stereo not drawn) [Example 41] | 21.9 | 
O=C(NCCCCCN1CCn2cncc2C1)c1cc(-c2cccs2)on1 [Example 94, N-(5-(5,6-dihydroimidazo[1,5-a]pyrazin-7(8H)-yl)pentyl)-5-(thiophen-2-yl)isoxazole-3-carboxamide] | 20.6 | 
O=C(NCCCCCN1CC(C(=O)NC2CC2)C1)c1cc(-c2cccs2)on1 [Example 62] | 26.6 | 

Compound | maximal fold induction [1] | Responsive length % (explant length with Atoh1 and Myo7a double positive cells / full length of cochlea explant) [2] [%]
O=C(NCCCCCN1CCC(O)CC1)c1cc(-c2cccs2)on1 [Example 39] | 20.5 | 
O=C(NCCCCCN1CC(C(=O)NC2CCC(O)C2)C1)c1cc(-c2cccs2)on1 (stereo not drawn) [Example 82, N-(5-(3-((3-Hydroxycyclopentyl)carbamoyl)azetidin-1-yl)pentyl)-5-(thiophen-2-yl)isoxazole-3-carboxamide] | 31.9 | 
CNC(=O)N1CCN(CCCCCNC(=O)c2cc(-c3cccs3)on2)CC1 [Example 25, N-(5-(4-(Methylcarbamoyl)piperazin-1-yl)pentyl)-5-(thiophen-2-yl)isoxazole-3-carboxamide] | 10.1 | 
CS(=O)(=O)NC1CN(CCCCCNC(=O)c2cc(-c3cccs3)on2)C1 [Example 19, N-(5-(3-(Methylsulfonamido)azetidin-1-yl)pentyl)-5-(thiophen-2-yl)isoxazole-3-carboxamide] | 31.7 | 
O=C(NCCCCCN1CC(CO)C1)c1cc(-c2ccc(F)cc2)on1 [Example 33] | 26.1 | 
O=C(NC1CN(CCCCCNC(=O)c2cc(-c3cccs3)on2)C1)OCCO [Example 20, 2-Hydroxyethyl (1-(5-(5-(thiophen-2-yl)isoxazole-3-carboxamido)pentyl)azetidin-3-yl)carbamate] | 29.4 | 
O=C(NCCCCCN1CC(C(=O)NCCO)C1)c1cc(-c2cccs2)on1 [Example 78, N-(5-(3-((2-Hydroxyethyl)carbamoyl)azetidin-1-yl)pentyl)-5-(thiophen-2-yl)isoxazole-3-carboxamide] | 23.1 | 
CN1CCN(CCCCCNC(=O)c2cc(-c3cccs3)on2)CC1=O [Example 38] | 34.3 | 
CCNC(=O)C1CN(CCCCCNC(=O)c2cc(-c3ccc(F)cc3)on2)C1 [Example 86, N-(5-(3-(Ethylcarbamoyl)azetidin-1-yl)pentyl)-5-(4-fluorophenyl)isoxazole-3-carboxamide] | 36.7 | 
O=C(NCCCCCN1CC(C(=O)N[C@H]2C[C@H](O)C2)C1)c1cc(-c2ccc(F)cc2)on1 [Example 89, 5-(4-Fluorophenyl)-N-(5-(3-(((1,3-trans)-3-hydroxycyclobutyl)carbamoyl)azetidin-1-yl)pentyl)isoxazole-3-carboxamide] | 11 | 
N#CCNC(=O)C1CN(CCCCCNC(=O)c2cc(-c3ccc(F)cc3)on2)C1 [Example 88, N-(5-(3-((Cyanomethyl)carbamoyl)azetidin-1-yl)pentyl)-5-(4-fluorophenyl)isoxazole-3-carboxamide] | 9.3 | 
NC(=O)C1CN(CCC(F)(F)CCNC(=O)c2cc(-c3ccc(F)cc3)on2)C1 [Example 76, N-(5-(3-Carbamoylazetidin-1-yl)-3,3-difluoropentyl)-5-(4-fluorophenyl)isoxazole-3-carboxamide] | 20.4 | 
N#CCCOC(=O)NC1CN(CCCCCNC(=O)c2cc(-c3cccs3)on2)C1 [Example 21, 2-Cyanoethyl (1-(5-(5-(thiophen-2-yl)isoxazole-3-carboxamido)pentyl)azetidin-3-yl)carbamate] | 13 | 
O=C(NCCCCCN1CC(C(=O)NCCCO)C1)c1cc(-c2cccs2)on1 [Example 81, N-(5-(3-((3-Hydroxypropyl)carbamoyl)azetidin-1-yl)pentyl)-5-(thiophen-2-yl)isoxazole-3-carboxamide] | 33 | 
CC(=O)NC1CN(CCCCCNC(=O)c2cc(-c3cccs3)on2)C1 [Example 16, N-(5-(3-Acetamidoazetidin-1-yl)pentyl)-5-(thiophen-2-yl)isoxazole-3-carboxamide] | 25.3 | 
O=C(NCCCCCN1CC2(COC2)C1)c1cc(-c2cccs2)on1 [Example 34] | 20.8 | 
